{"source": "patent US20130273057A1", "about": "“METHODS AND COMPOSITIONS FOR THE TREATMENT AND DIAGNOSIS OF VASCULAR INFLAMMATORY DISORDERS OR ENDOTHELIAL CELL DISORDERS” (Beth Israel Deaconess Medical Center, Inc., priority 2007, published 2013)", "key": {"EphA2 [1]": {"test_system": "EphA2", "assay": "EphA2 tyrosine phosphorylation in HUVECs (immunoprecipitation/4G10 western blot), Src dependence", "assay_type": "cell-based, human", "protocol": "Confluent HUVECs were pretreated with either DMSO or PP2 for […] and then stimulated with 1 U/ml thrombin or […] Ephrin A1-FC. EphA2 was immunoprecipitated and tyrosine phosphorylation was detected by immunoblot using an anti-phophotyrosine antibody (top panel). The blot was stripped and reblotted with the EphA2 antibody for loading (bottom panel). Representative data from 3 independent experiments are shown.\nMethods: Mouse EphrinA1 in a form of FC fusion was purchased from R and D Systems. Pharmacological agents PP2 was used to examine the role of Src in EphA2 phosphorylation. Confluent HUVECs were pretreated with PP2 (2 μM) or DMSO for 1 hour, followed by a 10-min treatment with sodium orthovandate (1 mM). Cells were then stimulated for 30 mins with either 1 U/ml thrombin or 250 ng/ml […]. HUVECs were lysed in RIPA buffer. Clarified lysates were immunoprecipitated with 2 μg of a polyclonal anti human EphA2 antibody (Santa Cruz) and Protein A/G Plus. Tyrosine phosphorylation and EphA2 were detected using the 4G10 and the EphA2 antibody (Santa Cruz), respectively."}, "[2]": {"test_system": "Tie-1-induced inflammation in HUVECs", "assay": "p38 inhibition study, real-time PCR in HUVECs infected with Tie-1 adenovirus", "assay_type": "cell-based, human", "details": "48 hours post infection", "source_text": "FIG. 28 is a graph showing that Tie-1 induced endothelial inflammation is p38 dependent.\nAdenovirus construction: For adenovirus production, we chose the AdEasy adenoviral expression system due to its ease of use and ability to generate high titer virus. Coding sequence of mouse Tie-1 excluding the endogenous leader sequence was amplified from cDNA prepared from mouse lung tissue. The following expression cassette was constructed: IgK leader sequence, a Flag epitope tag sequence, and the coding region of mouse Tie-1. This cassette was subcloned into the shuttle vector pAdTrack, which contains two CMV promoters to express the gene of interest and the green fluorescent protein (GFP) independently. After homologous recombination in the E. coli strain BJ5183 (Stratagene), the recombined pAdeasy DNA (PacI-cut) was used to transfect 293A cells (Invitrogen). After several rounds of amplification, the virus was purified using the Ad-Pure Adenoviral Purification Kit (BioVintage) and tittered using 293A as the host. Immediately prior to use, the virus was desalted and buffer-exchanged into endothelial growth medium using a spin column (Pierce). Adenoviral infection: Human umbilical vein endothelial cells (HUVECs) and human aortic endothelial cells (HAECs) were purchased from Cambrex and maintained as recommended by the manufacturer. To overexpress Tie-1, 200,000 endothelial cells were plated in one well of a […]. After overnight incubation, adenovirus harboring the Tie-1 expression cassette was added to the endothelial cells at MOI of 10:1. An “empty virus” expressing only GFP was used as a control. Seventeen hours later, medium was replaced with fresh medium. Cells were maintained and processed at the desired time points for the experiments described below. […] Lysates were immunoprecipitated with an anti-Tiel antibody (Santa Cruz, SC-342). Western blotting with anti phosphotyrosine antibody (4G10, Upstate) was used to determine the phosphorylation status of Tie-1. The membrane was stripped and reblotted with the anti-Tiel antibody. A portion of the lysates was immunoprecipitated with 4G10. Tyrosine phosphorylation of Tie-1 was confirmed by western blotting with the anti-Tiel antibody using these 4G10 immunoprecipitates. Antibody array experiment: HUVECs were infected as described. Forty-eight hours later, supernatants from Tie-1 expressing or GFP expressing cells were collected. After brief centrifugation to remove cell debris, the supernatants were spun through a 0.22-μm cellulose acetate filter (Spin-X, Costar). Cytokine and chemokine contents in the conditioned media were screened using the RayBio Human Inflammation Antibody Array 3.1(RayBiotech). Real-time polymerase chain reactions (PCR)—Total RNAs from endothelial cells were isolated by the RNAeasy Mini Kit (Qiagen) and used as templates in oligo-dT primed reverse transcription using the Superscript III reverse transcriptase (Invitrogen). Real-time PCRs were performed using the QuantiTect Probe PCR Kit (Qiagen) with the 7500 Real Time PCR System (Applied Biosystems). Gene of interest and GAPDH were multiplexed for normalization as described (Dupuy et al., Exp. Cell Res. 185: 363-372., (1989)). The following real time PCR probes were purchased from Applied Biosystems and used in this study: CCL2 5′-[…]-3′(SEQ ID NO: 27); VCAM-1: 5′-[…]-3 (SEQ ID NO: 28)′; ICAM: 5′-[…]-3′(SEQ ID NO: 29); CXCL10: 5′-[…]-3′(SEQ ID NO: 30); E-selectin: 5′-[…]-3′(SEQ ID NO: 31); IL-6: 5′-[…]-3′ (SEQ ID NO: 32). ELISA—HUVECs were infected as described above. Supernatants were collected from Tie-1 expressing or GFP expressing cells 70 hours post infection. The ELISA kit for human IL-6 was purchased from R and D Systems. Western blots—Endothelial cell lysates were prepared in denaturing SDS-PAGE loading buffer, sonicated, heated at 80° C. for 5 mins, and fractionated on SDS-PAGE. […]"}, "EphA2 [3]": {"test_system": "EphA2", "assay": "EphA2 tyrosine phosphorylation in HUVECs stimulated with PAR agonistic peptides", "assay_type": "cell-based, human", "details": "peptides at 20 μM as stimulants", "protocol": "FIG. 37 is an immunoblot showing PAR-1 activates EphA2. Confluent HUVECs were stimulated with PAR agonistic peptides TFLLR-NH2 (PAR-1) (SEQ ID NO: 11), RLLFT-NH2 (negative control for PAR-1) (SEQ ID NO: 12), SLIGKV-NH2 (PAR-2) (SEQ ID NO: 13), GYPGKF-NH2 (PAR-4) (SEQ ID NO: 14), and thrombin. Tyrosine phosphorylation of EphA2 was determined by western blot.\nMethods: HUVECs were prepared and stimulated as described in above except that the following peptides at 20 μM were used as stimulants: TFLLR-NH2 (PAR-1; SEQ ID NO: 11), RLLFT-NH2 (negative control for PAR-1; SEQ ID NO: 12), SLIGKV-NH2 (PAR-2; SEQ ID NO: 13), and GYPGKF-NH2 (PAR-4; SEQ ID NO: 14)."}, "thrombin": {"target": "T1, thrombin (Homo sapiens, UniProt P00734)", "T1 construct": "tissue Calbiochem 527420; host or cells: human plasma added to HUVEC monolayers", "assay": "In vitro thrombin activation colorimetric assay, HUVECs expressing Tie-1 endodomain with human plasma and chromogenic thrombin substrate", "assay_type": "cell-based", "details": "hirudin 100 U/ml; HUVECs infected with Tie-1 endodomain adenovirus; absorbance at 405 nm", "protocol": "HUVECs were either expressing GFP or Tie-1 endodomain. Whole human plasma supplemented with an excess chromogenic thrombin substrate (sarcosine-Pro-Arg-pNA) (Duncan, Bowie et al., Clin Chem 31: 853-855, (1985)) was added to HUVECs. Cleavage carboxyl-terminal to the arginine residue by thrombin releases […], which can be monitored by absorbance at 405 nm.\nMethods: HUVECs were grown to confluency in a 12-well plate. Cells were either uninfected, infected with control GFP adenovirus, or Tie-1 endodomain adenovirus. Next day, medium was changed to fresh full EGM2-MV. 72-hr post infection, cells were washed with EBM2 basal medium (without phenol red), and 0.5 ml of assay medium [EBM2 basal medium (without phenol red)/10% human plasma (Calbiochem 527420)/200 μM chromogenic thrombin substrate (Calbiochem 539518)] was added. Hirudin (Calbiochem 377853, 100 U/ml) was added to one set of cells infected with Tie-1 endodomain. The assay was quenched by the addition of aprotinin (Sigma A1154, 5.6 U/ml). Absorbance at 405 nm was measured using a spectrophotometer and used as an indicator of thrombin activity. […]\nResults: We used a colorimetric assay to determine whether expression of Tie-1 endodomain could induce activation of thrombin in vitro. […] Thrombin activation was detected by an increase in absorbance of the cleaved thrombin substrate ([…]) at 405 nm. […]"}, "[4]": {"test_system": "stenosis after balloon angioplasty", "details": "rabbit, rat, and pig models; cited from earlier work"}, "ICAM-1": {"test_system": "ICAM-1", "assay": "Thrombin-induced ICAM-1 upregulation in HUVECs, western blot", "assay_type": "cell-based, human", "source_text": "FIGS. 33A-33B show thrombin induction of ICAM-1 upregulation in HUVECs is dependent on EphA2. […] Representative data from 3 experiments are shown. FIG. 33B is a graph showing densitometric quantification of the results in […] normalized for fold increase in ICAM-1 expression. Results were reported as fold-increase in ICAM-1 expression relative to unstimulated controls. Data are mean±s.d. of three experiments; * p<0.002.\nFIGS. 34A-34B show overexpression of mouse EphA2 rescues thrombin-induced ICAM-1 upregulation in HUVECs with endogenous EphA2 knocked down. […] The cells were treated with human EphA2 specific siRNA as indicated and ICAM-1 upregulation was induced using 1 U/ml thrombin for 6 hours (T). Representative data from 4 experiments are shown. […] “−” and “+” represent without or with thrombin stimulation (1 U/ml, 6 hr). Representative results from two experiments are shown.\nMethods: Two validated Stealth siRNA duplexes specific to human EphA2 and a negative control duplexes were purchased from Invitrogen (EphA2 siRNA, catalog number: 12938-022, sequence: 5′-gca agg aag ugg uac ugc ugg acu u-3′ (siRNA #1, SEQ NO ID 33) and control siRNA, catalog number 12935-300, sequence: 5-ggg acc uga ugc aga aca uca uga a-3 (siRNA #2, SEQ NO ID 34)). […] ICAM-1 protein expression were detected by western blots using an anti ICAM-1 antibodies. […]"}}, "note": "Ends that are not written are not given here."}
{"molecule": "CC(C)(C)n1nc(-c2ccc(Cl)cc2)c2c(N)ncnc21", "note": "[PP2]", "values": [{"measurement": "tyrosine phosphorylation of EphA2 by EphrinA1, sensitivity to PP2", "setting": "EphA2 [1]; PP2 2 μM 1 hour, 250 ng/ml EphrinA1-FC 30 mins", "result": "insensitive"}, {"measurement": "thrombin-induced EphA2 tyrosine phosphorylation", "setting": "EphA2 [1]; PP2 2 μM 1 hour, 1 U/ml thrombin 30 mins", "result": "completely abrogated"}]}
{"molecule": "C[S+]([O-])c1ccc(-c2nc(-c3ccncc3)c(-c3ccc(F)cc3)[nH]2)cc1", "note": "(centres unmarked) [SB-203580]", "values": [{"measurement": "Tie-1-induced CCL2 upregulation", "setting": "[2]", "result": "Significant inhibition"}, {"measurement": "Tie-1-induced ICAM-1 upregulation", "setting": "[2]", "result": "Significant inhibition"}, {"measurement": "Tie-1-induced upregulation of E-selectin mRNA", "setting": "[2]", "result": "almost completely blocked"}, {"measurement": "Tie-1-induced upregulation of IL-6 mRNA", "setting": "[2]", "result": "almost completely blocked"}, {"measurement": "Tie-1-induced upregulation of IP-10 mRNA", "setting": "[2]", "result": "almost completely blocked"}, {"measurement": "Tie-1-induced upregulation of VCAM-1 mRNA", "setting": "[2]", "result": "almost completely blocked"}]}
{"molecule": "GYPGKF-NH2 [PAR-4 specific agonist]", "values": [{"measurement": "EphA2 tyrosine phosphorylation (transactivation) in HUVECs", "setting": "EphA2 [3]", "result": "failed to induce"}]}
{"molecule": "RLLFT-NH2", "values": [{"measurement": "EphA2 tyrosine phosphorylation (transactivation) in HUVECs", "setting": "EphA2 [3]", "result": "failed to induce"}]}
{"molecule": "SLIGKV-NH2 [PAR-2 specific agonist]", "values": [{"measurement": "EphA2 tyrosine phosphorylation (transactivation) in HUVECs", "setting": "EphA2 [3]", "result": "failed to induce"}]}
{"molecule": "TFLLR-NH2 [PAR-1 specific agonistic peptide]", "values": [{"measurement": "EphA2 tyrosine phosphorylation (transactivation) in HUVECs", "setting": "EphA2 [3]", "result": "recapitulated EphA2 transactivation"}]}
{"molecule": "hirudin", "values": [{"measurement": "cleavage of the chromogenic thrombin substrate", "setting": "thrombin", "result": "completely blocked"}, {"measurement": "development of stenosis after balloon angioplasty", "setting": "[4]", "result": "reduces"}]}
{"molecule": "soluble EphA2: soluble EphA2 added in excess during thrombin stimulation", "values": [{"measurement": "ICAM-1 expression induced by thrombin, block by co-incubation", "setting": "ICAM-1; soluble EphA2 at concentrations up to 1 μg/ml, thrombin 1 U/ml, 6 hr", "result": "failed to block"}]}
{"molecule": "EphrinA1-FC: Mouse EphrinA1 in a form of FC fusion, R and D Systems (protein, left off: a dimerising Fc or GST, Mouse EphrinA1 in a form of FC fusion, R and D Systems) DRHIVFWNSSNPKFREEDYTVHVQLNDYLDIICPHYEDDSVADAAMERYTLYMVEHQEYVACQPQSKDQVRWNCNRPSAKHGPEKLSEKFQRFTPFILGKEFKEGHSYYYISKPIYHQESQCLKLKVTVNGKITHNPQAHVNPQEKRLQADDPEVQVLHSIGYS", "values": [{"measurement": "stimulation of ICAM-1 expression", "setting": "ICAM-1; EphrinA1-FC up to 10 μg/ml, no thrombin", "result": "did not stimulate"}, {"measurement": "activation of EphA2 in endothelial cells", "setting": "EphA2 [1]; FC-fusion protein, 250 ng/ml, 30 mins", "result": "induced significant activation"}]}
